The text below walks through data of EP3189848B1, “A COMPOSITION COMPRISING TRIPEPTIDES FOR THE TREATMENT OF DISEASES OF THE JOINTS AND THE SPINE” (Zamerton Holdings Limited, priority 2014, dated 2016).

Holding throughout (format): in vivo
For experiment [1], the system named is articular cartilages of rats with experimental arthritis. The experiment in a line: Electron microscopic study of the ultrastructure of the articular cartilages. Conditions: 50 mg/kg. As for the experimental part: The study of the ultrastructure of the articular cartilages of the rats was performed using conventional electron microscopy techniques.
For experiment [2], the system named is patients with degenerative process occurring in the intervertebral joints and intervertebral discs. Description: Clinical administration to patients with degenerative process of the spine (second group). Conditions: 50 mg intramuscularly daily, 30 injections. As for the experimental part:
(§1) Example 3. Administration of the peptide composition and the peptide composition in combination with glucosamine sulfate and/or chondroitin sulfate to patients with degenerative-dystrophic diseases of the joints and the spine.
(§2) The studies were carried out in a group patients aged 40 - 65 years.
The second group (30 patients) was characterized by the degenerative process occurring in the intervertebral joints and intervertebral discs accompanied by deformation of the intervertebral discs and formation of osteophytes, which was manifested in the appearance of pain of varying intensity and duration.
A total of 10 patients in the second group received the peptide composition at a dose of 300 µg; 9 patients received glucosamine sulfate at a dose of 50 mg; and 11 patients received the composition of the peptides at a dose of 300 µg and glucosamine sulfate at a dose of 50 mg administered intramuscularly on a daily basis. The treatment course comprised 30 injections. A therapeutic effect associated with administration of glucosamine sulfate was achieved after at least 1 month of therapy. […]

Experiment [3] relates to patients with degenerative-dystrophic diseases of the joints. Description: Clinical administration to patients with joint disease (first group). Conditions: 500 mg, tablets twice a day three weeks then once daily. On the procedure: as §1, §2
The first group (50 patients) was characterized by stiffness in the joints, as well as puffiness or swelling in the joints, which was manifested in the appearance of pain of varying intensity and duration.
A total of 15 patients in the first group were exposed to the peptide composition administered at a dose of 150 µg; 7 patients received glucosamine sulfate at a dose of 500 mg; 10 patients were treated with the composition of the peptides administered at a dose of 150 µg, glucosamine sulfate at a dose of 500 mg, and chondroitin sulfate at a dose of 50 mg; and 18 patients received the composition of the peptides administered at a dose of 150 µg and glucosamine sulfate at a dose of 500 mg in the form of tablets twice a day over the first three weeks and then once daily for up to 6 months. A sustained therapeutic effect associated with administration of glucosamine sulfate was achieved after at least 6 months of therapy. […]

In experiment [4] the test system is articular cartilages of the knee joints of the rats. Description: Histomorphological and morphometric study of the articular cartilages of the knee joints (light microscopy, scoring system). As for the experimental part: The study was conducted using white outbred male rats 4-5 months of age weighing 250-300 g obtained from the same litter (same age and weight, with normal primary clinical and biochemical analyses parameters). Modeling of steroid arthritis was achieved by three single intramuscular injections of dexamethasone administered at an interval of 1 week at a dose of 7 mg/kg. The first signs of the arthropathy were detected as early as week 2 of the experiment.
Starting from day 28 of the experiment, all animals received corresponding intramuscular doses of the preparations on a daily basis over 4 weeks. The degree of activity of the pathological process was evaluated using biochemical blood test parameters. The following biochemical parameters were used as the parameters for evaluation of the intensity of progression of the pathological process in the experimental groups: the contents of sialic acids, glycoproteins, and chondroitin sulfates in the serum, as these parameters reflect the intensity of progression of the degenerative-dystrophic processes in the connective tissue.
Clinical observation of the animals was implemented throughout the study; the functional state of the rat joints was monitored (degree of mobility, resistance to stress, swelling, hyperaemia). The animals were decapitated under ether anesthesia at the end of the study (on day 56) to harvest biomaterials for biochemical and histomorphological studies.
In order to investigate the chondroprotective activity of the composition, a study of the condition of the morpho- and ultrastructure of the articular cartilages of the knee joints of the rats was carried out on day 56 of the experiment.
The histomorphological investigation of the articular cartilages was carried out using standard light microscopy techniques.
The morphometric measurements were carried out using an ocular micrometer: the cartilage thickness was determined using slide mounts; the measurements were taken at 3 individual points - the central part of the head, and the upper and lower edges. The thickness of the articular cartilages was expressed in conventional units. The density of chondrocytes per conventional unit area was also estimated. Statistical processing of the digital data obtained was performed using Student's t-test and non-parametric methods of analysis (Mann-Whitney U Test). […]

The subject of experiment [5] is rats with experimental arthritis. Description: Primary connective tissue metabolites in blood serum, rat model of systemic steroid (dexamethasone) arthritis. Conditions: Day 56, daily i.m. 4 weeks, 50 mg/kg. The source says:
Example 2. A study of the chondroprotective activity of a composition comprising peptides Lys-Asp-Glu, Ala-Asp-Glu, Asp-Glu-Gly, and an agent comprising peptides Lys-Asp-Glu, Ala-Asp-Glu, Asp-Glu-Gly and chondroitin sulfate and/or glucosamine sulfate using a rat-based model of systemic steroid arthritis.
Lyophilized powder consisting of peptides Lys-Asp-Glu, Ala-Asp-Glu, Asp-Glu-Gly was used to obtain the preparation for intramuscular injections.
The daily dose of the composition comprising peptides Lys-Asp-Glu, Ala-Asp-Glu, Asp-Glu-Gly was 50 µg/kg (at a weight ratio of the peptides of 1:1:1), 150 µg/kg (at a weight ratio of the peptides of 1:2:1), 300 µg/kg (at a weight ratio of the peptides of 0.1:1:10) or 600 µg/kg (at a weight ratio of the peptides of 1:1:3).
The daily dose of the composition comprising peptides Lys-Asp-Glu, Ala-Asp-Glu, Asp-Glu-Gly and glucosamine sulfate or chondroitin sulfate was 150 µg/kg of the peptides (at a weight ratio of the peptides of 1:2:1) and 50 mg/kg of glucosamine sulfate or chondroitin sulfate, or 300 µg/kg of the peptides (at a weight ratio of the peptides of 0.1:1:10) and 50 mg/kg of glucosamine sulfate or chondroitin sulfate, or 600 µg/kg of the peptides (at a weight ratio of the peptides of 1:1:3) and 50 mg/kg of glucosamine sulfate or chondroitin sulfate. […]
The study was conducted using white outbred male rats 4-5 months of age weighing 250-300 g obtained from the same litter (same age and weight, with normal primary clinical and biochemical analyses parameters). […] The first signs of the arthropathy were detected as early as week 2 of the experiment.
Starting from day 28 of the experiment, all animals received corresponding intramuscular doses of the preparations on a daily basis over 4 weeks. The degree of activity of the pathological process was evaluated using biochemical blood test parameters. […]
Clinical observation of the animals was implemented throughout the study; the functional state of the rat joints was monitored (degree of mobility, resistance to stress, swelling, hyperaemia). […]

Each structure is given as a SMILES string.

For `N[C@H]1C(O)O[C@H](CO)[C@@H](O)[C@@H]1O.O=S(=O)(O)O` (stereo partly shown) [Glucosamine sulfate], the “ultrastructure of the cartilages” value in experiment [1] is on record as “normalization of the ultrastructure of the cartilages accompanied by moderate degenerative-dystrophic manifestations in chondrocytes”. Besides, the “therapy duration until therapeutic effect” value in experiment [2] is given as “at least 1 month”. Further, the “therapy duration until sustained therapeutic effect” value in experiment [3] is recorded as “at least 6 months”. The “morphology of the joints (slide mounts)” value in experiment [4] (50 mg/kg) is given as “improvement of the morphology in comparison to the control pathology animal group”. In experiment [4] (day 56, 50 mg/kg), the Cartilage thickness turned out to be 14.10±1.06 conventional units, the “Cell density per conventional unit area” value was 23.79±1.80 and the “Total score according to the cartilage condition evaluation system” value worked out at 16.2±1.3. In addition, in experiment [5], the Chondroitin sulfate worked out at 0.400 ± 0.027 g/L, the Glycoproteins came to 3.59 ± 0.29 g/L and the Sialic acids was found to be 4.27 ± 0.34 mmol/L.
